# Data reported in patent US20110064679A1 (priority 2008, published 2011).
# Like-named read-outs stand apart in the source and are kept apart here.
# Tests used:
# [1] = system: Mouse; settings: cited from earlier work
# [2] = system: Caenorhabditis elegans; experiment: Lifespan toxicity test of preservative / acidizing agent; format: in vivo
# Procedure: (§1) The toxicity of the preservative was tested by examining the lifespan of Caenorhabditis elegans, Drosophila melanogaster, and Mus musculus.
# (§2) This dropped the pH of the agar from 6.0 to 5.3. The toxicity of the acidizing agent was tested by examining the lifespan of Caenorhabditis elegans.
# [3] = system: microbial growth; experiment: Preservative function: microbial growth in agar and cornmeal paste; settings: for microbial growth compared to control preparations: 8 mM in Nematode Growth Agar and cornmeal paste, monitored with a microscope
# Excerpt: These compositions where monitored over time with a microscope, and compared to control preparations.
# [4] = system: genomic expression in the livers; experiment: Genomic expression in the livers, Affymatrix Mouse Genome 430 2.0 Array; format: in vivo; settings: for Percentage of genes moving in same direction as Calorie Restricted Mice (correlation): 1.7 fold expression cut-off
# Excerpt: In the calorie restricted mice, 1,763 genes changed in expression as compared to the control group. […] Comparison of common genes changed in expression between the Calorie Restricted group and the Oxaloacetic group indicated 363 genes in common.
# If a 1.7 fold expression cut-off is used to eliminate false positives (commonly used in the literature), the correlation between the two groups becomes 100% for the genes in common, which drops down to 36 highly expressed or repressed genes. A table of the genes affected is seen in Table 1.
# [5] = system: Mus musculus; settings: in vivo
# Procedure: as §1
# [6] = system: Drosophila melanogaster; experiment: Lifespan toxicity test of preservative; format: in vivo
# Procedure: as §1
# [7] = Acidizing function: pH of agar; format: physicochemical
# Procedure: as §2
# [8] = in vivo; settings: male, C57BL/6, mouse, in vivo, po
# Procedure: (§3) This product was added to the normal diet and consumed over a period of eight hours. Food was selected as the vehicle of choice due to solubility concerns of the Oxaloacetate and because of the anticipated use of the product.
# (§4) C57BL/6 mice were used in this test. These mice were used because they are often used for longevity studies. Additionally, there is substantial information on Chronic exposure of the test compound with this breed of mice.
# (§5) Male mice were used in the Acute study because male mice were used in the Chronic exposure study. Each animal was housed separately and was 2 months of age.
# (§6) 5,000 mg/kg doses of the test compound were added to food, as it is anticipated that this product will be taken with a meal. Specifically,
# (§7) Each animal was caged separately. Prior to feeding, the bedding in the animal cage was changed. Food was prepared by dissolving 100 mg of the test compound with each ml of distilled water, then rolling the appropriate amount of food pellets in the amount of water until the waster was absorbed to obtain the proper dosage per animal. The test compound laced food was placed in the cage with the animal at the end of the day. […] Water was provided freely.
# (§8) After dosing the animals with the test compound, the animals were returned to a standard Ad Librium diet of food pellets and water.
# [9] = system: C57BL/6 mice; experiment: in vivo
# Procedure: as §3, §4, §5, §6, §7, §8
# [10] = system: C57BL/6 mice; settings: for Average increase in lifespan compared to the control group: daily dosage of 380 mg/kg, male C57BL/6 mice started at 9 months
# Procedure: as §3
# C57BL/6 mice were used in this test. These mice were used because they are often used for longevity studies.
# Male mice were used in the Chronic study because of their linear increase in weight with time. Females are less linear in their increase.
# Each animal was housed separately and the test was started with older animals (9 months of age) as human use is primarily anticipated to be in the older populations. The test was continued until all animals died.
# 25 Male C57BL/6 mice with the same day of birth (plus or minus 1 week) were selected for the test. The mice were evaluated for fasting glucose levels and weight, and broken into three similar groups based on equalization of weight and fasting glucose levels.
# Each animal was caged separately in a low stimulus environment and fed one of three diets. The first group was the Control Group, and it was fed an ad Librium balanced diet of mouse food pellets. The second group was calorie restricted 40% from the control group, as established by baseline feeding. […] At the end of 21 weeks, 3 mice from each group were sacrificed and their livers exhumed for genomic testing.
# The remaining groups of mice were allowed to live the rest of their lives on the individualized diets for humane reasons. The study has been ongoing for 18 months.
# The test compound laced food was placed in the cage with the animal at the end of each day. Water was provided freely.
compound,measurement,setting,value
CC(O)C(=O)O (centres unmarked) [Lactic Acid],LD50,"[1]; Mouse data, injected, subcutaneous injection","4,500 mg/kg"
O=C(O)CC(O)C(=O)O (centres unmarked) [Malic Acid],LD50,"[1]; mouse, in vivo, po","1,600 mg/kg"
O=C(O)CC(=O)C(=O)O [Oxaloacetic Acid],lifespan (toxicity of the preservative),[2],no decrease in lifespan
same,lifespan (toxicity of the acidizing agent),[2]; 8 mM in agar,no decrease in lifespan
same,microbial growth compared to control preparations,[3],control preparation had more microbial growth
same,smallest concentration producing a reduction in microbial activity,[3]; even when the salt is used,8 mM
same,Genes Moving in Opposite Direction as Calorie Restricted Mice,[4]; 1.7 Fold Cut Off,0
same,Genes Moving in Same Direction as Calorie Restricted Mice,[4]; 1.7 Fold Cut Off,36
same,Percentage of genes moving in same direction as Calorie Restricted Mice (correlation),[4],100%
same,Percentage of genes moving in same direction as Calorie Restricted Mice (correlation),[4]; listed as Oxaloacetate,100.0%
same,Directional correlation of genomic expression with the calorie restricted group,"[4]; 363 genes in common, no cut-off",98.1%
same,OX to C Change,"[4]; gene 9130019P20Rik, Affx No. 39136, mouse liver vs control",1
same,Genes changed in expression in common with the Calorie Restricted group,"[4]; liver, after 21 weeks",363
same,Number of genes changed in expression as compared with the control group,"[4]; liver, after 21 weeks on increasing diet",765
same,lifespan (toxicity of the preservative),[5],no decrease in lifespan
same,lifespan (toxicity of the preservative),[6],no decrease in lifespan
same,smallest concentration producing a decrease in pH,[7],1 mM
same,pH of the agar after addition,"[7]; 8 mM in Nematode Growth Agar, dropped from 6.0",5.3
same,LD50 at 8 h,[8],> 5000 mg/kg
same,Survival at limitation dose,"[9]; 5,000 mg/kg with food, five male C57BL/6 mice",All animals survived
same,LD50,"[9]; male, C57BL/6, mouse, in vivo, po, 8 h","> 5,000 mg/kg"
same,Increase of residual lifespan over the control group,"[10]; 0.4% in food, 380 mg/kg daily, started at age of 9 months",40%
same,Average increase in lifespan compared to the control group,[10]; 0.4% in food,> 20%
same,Average increase in lifespan compared to the control group,"[10]; 0.4% in food, 380 mg/kg",25%
same,Chronic toxicity compared to the control group,"[10]; mouse, in vivo, 380 mg/kg",negative toxicity
"O=C([O-])CC(=O)C(=O)O.[Na+] [sodium oxaloacetate salt, sodium oxaloacetate]",microbial growth compared to control preparations,[3],control preparations had more microbial growth
